Among the data in patent publication US20230114728A1 (Venatorx Pharmaceuticals, Inc., priority 2019, published 2023) are MIC values, retold here.

Values after ≈ are worked out from the molar mass of the structure shown.

Holding throughout (experiment): Broth microdilution MIC in CAMHB
What all share (assay type): cell-based
A general note: Broth dilution looks for growth in wells or tubes with falling amounts of substance.

In test [1] the test system is E. coli 901C. Conditions: Escherichia coli; E. coli 901C (hyper-permeable); MHB; read-out: Minimum Inhibitory Concentration, E. coli 901C. The essentials:
(§1)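 Hyper-permeable or efflux-deficient strains serve to probe outer-membrane penetration. Growth inhibition is scored visually after 16-20 h at 37° C in CAMHB, starting from 2-8×10^5 CFU/mL.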

The test system of test [2] is P. aeruginosa ATCC 35151. The note with it: Pseudomonas aeruginosa, ATCC35151; MHB; hyper-permeable strain; read-out: Minimum Inhibitory Concentration, P. aeruginosa ATCC 35151. The method, boiled down:
as §1

Test [3] concerns K. pneumoniae SI-117 producing VIM-1. Conditions: Klebsiella pneumoniae, read-out: Minimum Inhibitory Concentration, K. pneumoniae SI-117. The method, boiled down:
as §1

Test [4] concerns K. pneumoniae 848844 producing SHV-11 and KPC-2. The note with it: Klebsiella pneumoniae, read-out: Minimum Inhibitory Concentration, K. pneumoniae 848844. The essentials: as §1
The test system of test [5] is A. baumannii ATCC 19606. Conditions: Acinetobacter baumannii, ATCC19606; MHB; read-out: Minimum Inhibitory Concentration, A. baumannii ATCC 19606. The method, boiled down:
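Lowest compound concentration with no visible growth after 16-20 h at 37 °C defines MIC. Plates of 2-fold serial dilutions in cation-adjusted Mueller Hinton broth received 2-8×10^5 CFU/mL of exponentially grown cells, per CLSI methods; panel spans reference, hyper-permeable and efflux-pump-deleted strains.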

The subject of test [6] is K. pneumoniae UMM producing SHV-5 and KPC-2. Conditions: Klebsiella pneumoniae, read-out: Minimum Inhibitory Concentration, K. pneumoniae UMM. The essentials:
as §1

Test [7] concerns E. coli AG100. The note with it: Escherichia coli; E. coli AG100 (wild-type parent); MHB; read-out: Minimum Inhibitory Concentration, E. coli AG100. The method, boiled down: as §1
Test [8] concerns P. aeruginosa ATCC 27853. The note with it: Pseudomonas aeruginosa, ATCC27853; MHB; read-out: Minimum Inhibitory Concentration, P. aeruginosa ATCC 27853. The method, boiled down: as §1
For test [9], the system named is P. aeruginosa (ΔmexAB-oprM). The note with it: Pseudomonas aeruginosa, read-out: Minimum Inhibitory Concentration, P. aeruginosa ΔmexAB-OprM. The method, boiled down:
as §1

Test [10] concerns E. coli ATCC 25922. The note with it: Escherichia coli, ATCC25922; E. coli ATCC 25922; MHB; read-out: Minimum Inhibitory Concentration, E. coli 25922. The method, boiled down:
as §1

Test [11] has as its system E. coli D22. Conditions: Escherichia coli; E. coli D22 (hyper-permeable); MHB; read-out: Minimum Inhibitory Concentration, E. coli D22. The method, boiled down:
as §1

Test [12] relates to E. coli AG100A. The note with it: Escherichia coli, read-out: Minimum Inhibitory Concentration, E. coli AG100A. The essentials: as §1

For `CCN1CCN(C(=O)NC(C(=O)N[C@H]2Cc3cccc(C(=O)O)c3OB2O)c2cc(O)cc(O)c2)C(=O)C1=O` (mixture of isomers) [Example 79, (3R)-3-(2-(3,5-dihydroxyphenyl)-2-(4-ethyl-2,3-dioxopiperazine-1-carboxamido)acetamido)-2-hydroxy-3,4-dihydro-2H-benzo[e][1,2]oxaborinine-8-carboxylic acid], the MIC in test [1] was under 0.25 µg/mL; in test [2], 0.5 to 1 µg/mL; in test [3] it was 32 to 64 µg/mL; in [4] it was 32 to 64 µg/mL; in [5], over 128 µg/mL; in test [6], 8 to 16 µg/mL. The MIC in [7] was 8 to 16 µg/mL; in test [8] it was over 128 µg/mL; in test [9], 2 to 4 µg/mL; in test [10], 8 to 16 µg/mL; in test [11] it was 2 to 4 µg/mL; in test [12] it was 2 to 4 µg/mL.
Regarding `CCN1CCN(C(=O)N[C@H](C(=O)N[C@H]2Cc3cccc(C(=O)O)c3OB2O)c2cc(O)cc(O)c2)C(=O)C1=O` (single isomer, unassigned) [Example 81], the MIC in test [1] was 0.5 to 1 µg/mL (≈ 0.925 to 1.85 µM); in test [2], 2 to 4 µg/mL (≈ 3.7 to 7.4 µM); in [3], over 128 µg/mL; in test [4], over 128 µg/mL; in [5] it was over 128 µg/mL; in test [6], over 128 µg/mL. For the same compound, the MIC in test [7] is 32 to 64 µg/mL (≈ 59.2 to 118 µM); in test [8], over 128 µg/mL; in [9], 32 to 64 µg/mL (≈ 59.2 to 118 µM); in [10], 32 to 64 µg/mL (≈ 59.2 to 118 µM); in [11] it was 8 to 16 µg/mL (≈ 14.8 to 29.6 µM); in test [12], 8 to 16 µg/mL (≈ 14.8 to 29.6 µM).
Regarding `O=C(O)c1ccc(C(NC(=O)N2CCN(CCNC(=O)c3ccc(O)c(O)c3Cl)C(=O)C2=O)C(=O)N[C@H]2Cc3ccc(F)c(C(=O)O)c3OB2O)cc1F` (stereo partly drawn) [Example 11, (3R)-3-(2-(4-carboxy-3-fluorophenyl)-2-(4-(2-(2-chloro-3,4-dihydroxybenzamido)ethyl)-2,3-dioxopiperazine-1-carboxamido)acetamido)-7-fluoro-2-hydroxy-3,4-dihydro-2H-benzo[e][1,2]oxaborinine-8-carboxylic acid], the MIC in test [1] is 0.5 to 1 µg/mL (≈ 0.646 to 1.29 µM); in test [3] it was 32 to 64 µg/mL (≈ 41.4 to 82.7 µM); in test [4] it was over 128 µg/mL; in [6], 2 to 4 µg/mL (≈ 2.58 to 5.17 µM); in test [7], 32 to 64 µg/mL (≈ 41.4 to 82.7 µM); in [10] it was 32 to 64 µg/mL (≈ 41.4 to 82.7 µM). In addition, the MIC in [11] was 8 to 16 µg/mL (≈ 10.3 to 20.7 µM); in test [12] it was 2 to 4 µg/mL (≈ 2.58 to 5.17 µM).
For the compound `O=C(NC(C(=O)N[C@H]1Cc2ccc(F)c(C(=O)O)c2OB1O)c1ncc(O)cc1F)c1ccnc(F)c1` (stereo partly drawn) [Example 53, (3R)-7-fluoro-3-(2-(3-fluoro-5-hydroxypyridin-2-yl)-2-(2-fluoroisonicotinamido)acetamido)-2-hydroxy-3,4-dihydro-2H-benzo[e][1,2]oxaborinine-8-carboxylic acid], the MIC in test [1] is 8 to 16 µg/mL (≈ 15.5 to 31 µM); in test [3], over 128 µg/mL; in [4] it was over 128 µg/mL; in [6], over 128 µg/mL; in test [7] it was over 128 µg/mL; in [10], over 128 µg/mL. Further, the MIC in [11] and in test [12] was over 128 µg/mL each time.
For the compound `CCN1CCN(C(=O)NC(C(=O)N[C@H]2Cc3ccc(S)c(C(=O)O)c3OB2O)c2csc(N)n2)C(=O)C1=O` (stereo partly drawn) [Example 54, (3R)-3-(2-(2-aminothiazol-4-yl)-2-(4-ethyl-2,3-dioxopiperazine-1-carboxamido)acetamido)-2-hydroxy-7-mercapto-3,4-dihydro-2H-benzo[e][1,2]oxaborinine-8-carboxylic acid], the MIC was 0.5 to 1 µg/mL (≈ 0.889 to 1.78 µM) in test [1]; 8 to 16 µg/mL (≈ 14.2 to 28.4 µM) in [2]; over 128 µg/mL in [3]; over 128 µg/mL in test [4]; over 128 µg/mL in test [5]; over 128 µg/mL in test [6]. Also, the MIC was over 128 µg/mL in test [7]; 32 to 64 µg/mL (≈ 56.9 to 114 µM) in test [9]; over 128 µg/mL in test [10]; 32 to 64 µg/mL (≈ 56.9 to 114 µM) in test [11]; over 128 µg/mL in test [12].
On to `CCN1CCN(C(=O)NC(C(=O)N[C@H]2Cc3ccc(SCc4ccc(O)cc4)c(C(=O)O)c3OB2O)c2csc(N)n2)C(=O)C1=O` (stereo partly drawn) [Example 55, (3R)-3-(2-(2-aminothiazol-4-yl)-2-(4-ethyl-2,3-dioxopiperazine-1-carboxamido)acetamido)-2-hydroxy-7-((4-hydroxybenzyl)thio)-3,4-dihydro-2H-benzo[e][1,2]oxaborinine-8-carboxylic acid], for which the MIC was 0.5 to 1 µg/mL (≈ 0.748 to 1.5 µM) in test [1]; 0.5 to 1 µg/mL (≈ 0.748 to 1.5 µM) in test [2]; over 128 µg/mL in test [3]; over 128 µg/mL in [4]; over 128 µg/mL in [5]; over 128 µg/mL in test [6]. Moreover, the MIC in [7] is over 128 µg/mL; in [9] it was 32 to 64 µg/mL (≈ 47.9 to 95.7 µM); in test [10], 32 to 64 µg/mL (≈ 47.9 to 95.7 µM); in [11] it was 8 to 16 µg/mL (≈ 12 to 23.9 µM); in test [12] it was 32 to 64 µg/mL (≈ 47.9 to 95.7 µM).
Consider `CCN1CCN(C(=O)NC(C(=O)N[C@H]2Cc3ccc(C=O)c(C(=O)O)c3OB2O)c2csc(N)n2)C(=O)C1=O` (stereo partly drawn) [Example 57, (3R)-3-(2-(2-aminothiazol-4-yl)-2-(4-ethyl-2,3-dioxopiperazine-1-carboxamido)acetamido)-7-formyl-2-hydroxy-3,4-dihydro-2H-benzo[e][1,2]oxaborinine-8-carboxylic acid], for which the MIC in [1] is 2 to 4 µg/mL (≈ 3.58 to 7.16 µM); in test [2], 2 to 4 µg/mL (≈ 3.58 to 7.16 µM); in [3] it was over 128 µg/mL; in test [4] it was 32 to 64 µg/mL (≈ 57.3 to 115 µM); in test [5], over 128 µg/mL; in [6] it was 32 to 64 µg/mL (≈ 57.3 to 115 µM). For the same compound, the MIC in [7] was over 128 µg/mL; in test [9] it was 32 to 64 µg/mL (≈ 57.3 to 115 µM); in test [10], 32 to 64 µg/mL (≈ 57.3 to 115 µM); in test [11], 8 to 16 µg/mL (≈ 14.3 to 28.7 µM); in test [12], 32 to 64 µg/mL (≈ 57.3 to 115 µM).
`CCN1CCN(C(=O)NC(C(=O)N[C@H]2Cc3ccc(CO)c(C(=O)O)c3OB2O)c2csc(N)n2)C(O)C1=O` (stereo partly drawn) [Example 58, (3R)-3-(2-(2-aminothiazol-4-yl)-2-(4-ethyl-2-hydroxy-3-oxopiperazine-1-carboxamido)acetamido)-2-hydroxy-7-(hydroxymethyl)-3,4-dihydro-2H-benzo[el][1,2]oxaborinine-8-carboxylic acid]: the MIC in [1] was 32 to 64 µg/mL (≈ 56.9 to 114 µM); in test [2], 8 to 16 µg/mL (≈ 14.2 to 28.5 µM); in [3], over 128 µg/mL; in test [4] it was over 128 µg/mL; in test [5], over 128 µg/mL; in test [6], over 128 µg/mL. In addition, the MIC in test [7], in [9], in test [10], in test [11] and in [12] was over 128 µg/mL throughout.
For `CCN1CCN(C(=O)NC(C(=O)N[C@H]2Cc3ccc(O[C@@H]4CN[C@H](C(=O)N(C)C)C4)c(C(=O)O)c3OB2O)c2ccccc2)C(=O)C1=O` (stereo partly drawn) [Example 59, (3R)-7-(((3S,5S)-5-(dimethylcarbamoyl)pyrrolidin-3-yl)oxy)-3-(2-(4-ethyl-2,3-dioxopiperazine-1-carboxamido)-2-phenylacetamido)-2-hydroxy-3,4-dihydro-2H-benzo[e][1,2]oxaborinine-8-carboxylic acid], the MIC in test [1] is 2 to 4 µg/mL (≈ 3.01 to 6.02 µM); in test [2], 0.5 to 1 µg/mL (≈ 0.752 to 1.5 µM); in [3], over 128 µg/mL; in [4], over 128 µg/mL; in test [5], over 128 µg/mL; in [6], over 128 µg/mL. Moreover, the MIC in test [7] was over 128 µg/mL; in test [9], 8 to 16 µg/mL (≈ 12 to 24.1 µM); in [10], over 128 µg/mL; in test [11], 32 to 64 µg/mL (≈ 48.2 to 96.3 µM); in test [12], 32 to 64 µg/mL (≈ 48.2 to 96.3 µM).
As for `CCN1CCN(C(=O)NC(C(=O)N[C@H]2Cc3ccc(OCCN)c(C(=O)O)c3OB2O)c2ccccc2)C(=O)C1=O` (stereo partly drawn) [Example 60, (3R)-7-(2-aminoethoxy)-3-(2-(4-ethyl-2,3-dioxopiperazine-1-carboxamido)-2-phenylacetamido)-2-hydroxy-3,4-dihydro-2H-benzo[e][1,2]oxaborinine-8-carboxylic acid], the MIC in [1] was 8 to 16 µg/mL (≈ 14.1 to 28.2 µM); in test [2], 2 to 4 µg/mL (≈ 3.53 to 7.05 µM); in test [3], over 128 µg/mL; in test [4], over 128 µg/mL; in test [5], over 128 µg/mL; in test [6] it was over 128 µg/mL. The MIC in test [7] was over 128 µg/mL; in test [9] it was 32 to 64 µg/mL (≈ 56.4 to 113 µM); in test [10] it was over 128 µg/mL; in [11], 32 to 64 µg/mL (≈ 56.4 to 113 µM); in test [12] it was 32 to 64 µg/mL (≈ 56.4 to 113 µM).
